# Biological target: T1, Pol δ (Saccharomyces cerevisiae, UniProt P15436)
# T1 sequence (P15436 1-1097): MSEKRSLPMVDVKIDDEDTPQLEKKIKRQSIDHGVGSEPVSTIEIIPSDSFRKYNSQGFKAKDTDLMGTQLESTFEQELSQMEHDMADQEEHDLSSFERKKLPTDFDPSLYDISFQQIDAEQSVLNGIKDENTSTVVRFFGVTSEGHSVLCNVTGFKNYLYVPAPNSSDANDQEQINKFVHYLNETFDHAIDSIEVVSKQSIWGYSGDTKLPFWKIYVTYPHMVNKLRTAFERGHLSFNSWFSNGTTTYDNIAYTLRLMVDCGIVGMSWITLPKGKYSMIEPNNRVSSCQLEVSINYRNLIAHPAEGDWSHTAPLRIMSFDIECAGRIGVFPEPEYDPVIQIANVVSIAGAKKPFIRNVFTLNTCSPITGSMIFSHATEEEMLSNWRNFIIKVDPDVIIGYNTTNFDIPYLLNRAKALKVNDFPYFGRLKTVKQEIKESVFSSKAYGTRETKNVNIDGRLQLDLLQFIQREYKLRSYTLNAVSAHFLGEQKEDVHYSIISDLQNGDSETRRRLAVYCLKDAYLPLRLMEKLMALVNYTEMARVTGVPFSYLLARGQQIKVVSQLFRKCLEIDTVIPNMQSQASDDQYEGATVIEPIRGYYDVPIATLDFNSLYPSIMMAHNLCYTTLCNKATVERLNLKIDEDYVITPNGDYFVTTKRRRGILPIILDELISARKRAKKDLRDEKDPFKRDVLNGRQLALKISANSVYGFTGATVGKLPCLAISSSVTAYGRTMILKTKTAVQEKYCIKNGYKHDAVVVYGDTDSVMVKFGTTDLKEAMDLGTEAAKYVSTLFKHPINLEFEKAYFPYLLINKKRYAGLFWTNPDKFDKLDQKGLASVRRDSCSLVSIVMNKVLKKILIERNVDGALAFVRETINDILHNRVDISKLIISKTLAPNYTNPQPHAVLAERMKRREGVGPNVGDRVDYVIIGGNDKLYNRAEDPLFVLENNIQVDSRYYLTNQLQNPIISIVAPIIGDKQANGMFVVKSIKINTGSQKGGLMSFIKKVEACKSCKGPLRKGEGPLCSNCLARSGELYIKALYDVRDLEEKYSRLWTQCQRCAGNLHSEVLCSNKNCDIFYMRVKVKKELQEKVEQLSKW
# T1 sequence (P46957 1-487 partner): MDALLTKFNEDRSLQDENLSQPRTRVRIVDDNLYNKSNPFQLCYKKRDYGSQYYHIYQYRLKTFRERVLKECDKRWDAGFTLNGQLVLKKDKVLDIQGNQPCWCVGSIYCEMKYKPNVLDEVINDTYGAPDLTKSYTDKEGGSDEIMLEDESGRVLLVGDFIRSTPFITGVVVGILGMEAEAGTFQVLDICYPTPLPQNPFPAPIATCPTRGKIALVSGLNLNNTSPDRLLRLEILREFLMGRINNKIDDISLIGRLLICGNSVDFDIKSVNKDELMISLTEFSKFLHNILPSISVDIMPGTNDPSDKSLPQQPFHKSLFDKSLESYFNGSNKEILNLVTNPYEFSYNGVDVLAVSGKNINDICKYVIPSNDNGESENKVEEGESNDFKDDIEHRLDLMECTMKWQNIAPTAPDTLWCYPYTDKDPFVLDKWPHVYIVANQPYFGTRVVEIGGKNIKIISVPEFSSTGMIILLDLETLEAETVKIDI
# T1 sequence (P47110 1-350 partner): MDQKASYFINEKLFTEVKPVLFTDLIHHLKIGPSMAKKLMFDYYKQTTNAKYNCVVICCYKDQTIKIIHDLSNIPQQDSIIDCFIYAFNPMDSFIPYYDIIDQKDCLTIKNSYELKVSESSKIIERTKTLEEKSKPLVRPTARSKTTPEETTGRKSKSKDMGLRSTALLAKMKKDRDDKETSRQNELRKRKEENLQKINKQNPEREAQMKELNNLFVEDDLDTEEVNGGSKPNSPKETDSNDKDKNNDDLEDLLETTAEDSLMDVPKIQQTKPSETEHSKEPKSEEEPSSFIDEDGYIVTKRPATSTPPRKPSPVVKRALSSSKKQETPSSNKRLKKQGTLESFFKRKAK
# Experiment: UV-Vis
# Format: binding
# Conditions: CysB site of Pol3; as isolated from yeast
smiles,measurement,value
[S]12[Fe]3[S]4[Fe]1[S]1[Fe]2[S]3[Fe]41 [[4Fe-4S] cluster],mol non-heme iron and acid-labile sulfide ions per mol Pol δ,~ 4 mol/mol

# — PMC3241888 (Nature chemical biology, 2011)
